Patent publication US20220031871A1, “ANTIBODIES FOR CHELATED RADIONUCLIDES AND CLEARING AGENTS” (Hoffmann-La Roche Inc., priority 2018, published 2022)

Tests used:
[1] = test system: BxPC3 tumors; assay: Protocol 95: TCMC saturation, CA-to-antibody ratio, ^212Pb activity; assay type: in vivo, SCID mice; details: no CA, 24 h; for tumor accumulation: ±SD, n=3
Excerpt: In this study, nine different clearing agents based on dextran-500 were compared in terms of inhibition of ^212Pb-DOTAM association to tumors. More specifically, the experiment assessed the impact on tumor-associated radioactivity from i) TCMC saturation, ii) clearing agent-to-antibody ratio, and iii) production/purification method. In addition, the tumor uptake was compared after injection of 10 or 30 μCi of ^212Pb-DOTAM, without pretargeting or CA, to assess whether radioactivity saturation of the tumor was achieved already at the lower dose.
PRIT-0165 (100 μg per 100 μL) was administered i.v., followed three days later by dextran-500-based clearing reagents (10-170 μg per 100 μL) with varying TCMC substitution (10-100%). Groups J and K received PBS instead of clearing agent. Two hours later, mice were injected i.v. with 100 μL of the respective ^212Pb-DOTAM solutions (10 or 30 μCi).
Mice were sacrificed and necropsied 24 hours after injection of ^212Pb-DOTAM. Blood, bladder, spleen, kidneys, liver, lung, muscle, tail, and tumors were collected, weighed and measured for radioactivity content, and the % ID/g subsequently calculated.

[2] = test system: s.c. BxPC3 tumors; assay: Protocol 146: ^212Pb-DOTAM distribution after PRIT, 5 min to 48 h; assay type: in vivo, SCID mice
Description: Protocol 146 was designed to provide in vivo ^212Pb-DOTAM distribution data after PRIT for estimations of the absorbed radioactive dose to tumor and normal tissues, in SCID mice carrying s.c. BxPC3 tumors. The quenching of ^212Pb-DOTAM was performed using Ca (see example 34).
Pretargeting was performed by injection of CEA-DOTAM BsAb, followed 7 days later by the CA. After 24 hours, the ^212Pb-DOTAM was administered. Groups of mice were sacrificed at multiple time points from 5 minutes to 48 hours after the radioactive injection, and blood and organs harvested for radioactive measurement. […] Absorbed doses were finally calculated through established methods using the resulting time-activity curves. […]
Mice in group E and F were individually housed (i.e. one mouse per cage) in grilled-floor metabolic cages. Urine and feces were collected from each cage 2, 6, and 24 hours after the radioactive injection, and the individual samples subsequently measured for radioactivity. […]
Blood/serum was collected from all mice through retro-orbital bleeding before termination. After euthanasia, the following additional organs and tissues were harvested for radioactivity measurement and calculation of % ID/g: bladder, uterus, small intestine, colon, spleen, pancreas, kidneys, stomach, liver, lung, heart, brain, femoral bone, skin, muscle, abdominal fat, tail, and tumor.

## NC(=O)CN1CCN(CC(N)=O)CCN(CC(N)=O)CCN(CC(N)=O)CC1.[212Pb+2] [^212Pb-DOTAM]
[1]; 10 μCi ^212Pb-DOTAM
  tumor-to-blood ratio: 2.26±0.25
  tumor accumulation: 72.38±10.83 % ID/g
[1]; 30 μCi ^212Pb-DOTAM
  tumor-to-blood ratio: 3.20±0.20
  tumor accumulation: 107.74±14.71 % ID/g
[2]; 5 minutes after injection, pretargeted by CEA-DOTAM BsAb, CA
  accumulation of radioactivity in tumor: 17 % ID/g
[2]; by 6 hours p.i., remaining for at least 48 hours
  accumulation of radioactivity in tumor: over 40%
